These results are taken from a melting point compilation (Tetko et al.; mined from patent text by program, amines drawn as free bases though some values may be those of a salt).

SMILES strings stand for the structures.

The melting point is the temperature of the solid-liquid transition. For `CC1OC(n2cc(F)c(NC(=O)c3ccc(Cl)cc3)nc2=O)C(O)C1O` (stereo not given), the melting point is 142 to 146 °C.
With `O=C1NCCN1c1ccc(S(=O)(=O)Nc2ccc(F)cc2)cc1`, the melting point fell in the range of 249 to 251 °C.
With `COc1ccc(-c2nn(C(C)C)c(=O)c3ccsc23)cc1`, the melting point is 124 to 126 °C.
In the case of `Cn1cc(C(=O)Nc2ccccc2OC(F)(F)C(F)Cl)c(C(F)(F)F)n1` (stereo not given), the melting point is 94 to 95 °C.
Molecule `O=C(O)c1cc(S(=O)(=O)CCO)ccc1[N+](=O)[O-]` showed a melting point of 165 to 167 °C.
In the case of `COC(=O)c1cc(NC(=O)c2ccccc2)c2cc(Cc3ccc(F)cc3)cnc2c1O`, the melting point is 247 to 249 °C.
For the molecule `CC(C)C1(C)N=C(c2ncc(CN(C)C)cc2C(=O)O)NC1=O` (stereo not given), the melting point lay in the range of 186 to 190 °C.
`O=Cc1ccc(-c2cn3ccnc3s2)cc1` returned a melting point of 169 °C.
The molecule `CN1CCN(c2cccc3ccc(NC(=O)OCc4ccccc4)cc23)CC1` showed a melting point of 143 to 144 °C.
In the case of `O=C(O)C1CCc2[nH]c3ccc(Cl)cc3c2C1` (stereo not given) it was 181 to 183 °C; in that of `CC1(C)CC(=O)CC(=O)C1c1ccccc1` (stereo not given), 133 to 135 °C; in that of `N#CNC(=NC1CCN(Cc2ccccc2)CC1)N1CCc2ccccc2CC1`, 192 to 194 °C.
Turning to `CC(C)(C)OC(=O)c1ccc(N2CCC(N)CC2)cc1`, the melting point lay within 89 to 91 °C.
The molecule `Cc1cc(C(F)(F)F)cnc1O` displayed a melting point of 141 to 143 °C.
`CC(C)(C)c1nc(C(O)CCC2CCNCC2)c2ccccc2n1` (stereo not given): the melting point worked out at 110 °C.
Molecule `CCOC(=O)c1cc(Cl)nc(Cl)n1` displayed a melting point of 31.6 °C.
The same measure for `CC1(C)Cc2c(N)c(Cl)cc(C(=O)NC3CCN(CCCC4(C)OCCO4)CC3)c2O1`: 136 °C.
In the case of `CC(C)CC(=O)Nc1cccc(-c2ccnc3c(-c4ccc(Cl)cc4)cnn23)c1`, the melting point is 215 to 217 °C.
On to `CC1(C)CCC[C@H](NC(c2ccccc2)(c2ccccc2)c2ccccc2)C(=O)N1`, for which the melting point was in the range of 139 to 140 °C.
Consider `CCOC(=O)C(F)(F)C(=O)[C@H](Cc1ccccc1)NC(=O)Cn1c(-c2cccc(C)c2)ncc(NC(=O)OCc2ccccc2)c1=O`, for which the melting point was in the range of 138 to 140 °C.
The same measure for `COc1c(F)c(F)c(C2=CC(=O)NC2=O)c(F)c1F`: 91 °C; for `O=C(NC[C@H]1CN(c2ccc3c(c2)CCCc2cn[nH]c2-3)C(=O)O1)C(F)F`: 147 to 150 °C; for `COc1ccccc1N(CN1C(=O)CN(C)C1=O)C(C)=O`: 169 to 172 °C.
In the case of `Cc1nc(-c2ccc(C(=O)N3CCN(S(=O)(=O)c4ccc5cc(Br)ccc5c4)CC3)cc2)c[nH]1` it was 215 to 216 °C.
`CSC1=C(Cl)CC2C3CCC4=CC(=O)C=CC4(C)C3(F)C(O)CC12C` (stereo not given) came in with a melting point of 262 to 268 °C.
For the molecule `CCCOc1ccc(O)cc1OC`, the melting point was 54 to 56 °C.
Take `Cn1nc(C(F)(F)F)c(CS(=O)(=O)C2=NOC(C)(C)C2)c1OC1CCCC1`: the melting point lay within 113 to 114 °C.
In the case of `O=C(Nc1ccc(-c2ccc(C(=O)N3CCN4CCC3CC4)o2)cc1)c1ccccc1` it was 254 °C.
The same measure for `CC(C)c1ccc2cc(O)ccc2c1`: 109 to 110 °C.
On to `O=C(O)c1csc2ccc(O)cc12`, for which the melting point was in the range of 262 to 263 °C.
Consider `N#CC(=Cc1ccc[nH]1)C(=O)O`, for which the melting point turned out to be 213 °C.
In the case of `O=P(O)(O)C(O)(CC1(c2ccc(Cl)cc2)C=CN(c2ccccc2)N1)P(=O)(O)O` (stereo not given) it was 199 °C.
`O=C1CCCc2nc3ccccc3c(NCc3ccccc3)c21` returned a melting point of 162 to 163 °C.
In the case of `CCCCC1=NOC(Cc2ccccc2)C(=O)N1` (stereo not given) it was 82 to 85 °C.
`COC(=O)CC=C(CC(C)C)C(=O)O` yielded a melting point of 40 to 45 °C.
`CCc1c(NC(=O)c2cc(S(C)(=O)=O)ccc2OCC(C)C)c(C(N)=O)nn1CCN1CCOCC1`: the melting point lay in the range of 200 to 203 °C.
On to `COc1cc2ncnc(Nc3cc(Cl)cc(N=[N+]=[N-])c3)c2cc1OC`, for which the melting point fell in the range of 205 to 206 °C.
`COc1ccc2c(c1)C1=C(CC2)NC(=O)CC1` yielded a melting point of 227 to 228 °C.
`CCOC(=O)c1sc(SC(C)C)c2c1CCC(Br)C2=O` (stereo not given) displayed a melting point of 107 to 108 °C.
As for `Cc1cc(C)nc(N(C=S)c2ccccc2)n1`, the melting point was 161 to 165 °C.
Turning to `O=C(Oc1ccc2c(c1)CCCC2)Oc1ccc2c(c1)CCCC2`, the melting point turned out to be 112 °C.
The same measure for `Clc1cccc(C2=NOCCS2)c1`: 65 °C; for `Cc1c(-c2ccc(F)cc2)c(-c2ccc(S(C)(=O)=O)cc2)c2n1CCC2`: 191 °C.
For `O=C(CCC(=O)c1cccs1)Nc1cccc2cc(-c3nccs3)[nH]c12`, the melting point was in the range of 140 to 141 °C.
For the molecule `CCOC(=O)/C=C(C)/C=C/C=C(C)/C=C/c1c(Cl)cc(OC(F)(F)F)c(C)c1Cl`, the melting point lay within 93 to 94 °C.
`CSc1c(C#N)c(=O)n2ccccc2c1C(C)=O`: the melting point was 178 °C.
In turn, `CCOC(=O)COc1ccc(C(=O)c2ccn[nH]2)c(Cl)c1Cl` came in with a melting point of 147 to 149 °C.
In the case of `COC(=O)NNC(=O)C(O)(c1ccccc1)c1ccccc1`, the melting point fell in the range of 160 to 161 °C.
Take `Cc1ccccc1CCC(=NO)C(=O)C(F)(F)F`: the melting point was 80 to 81 °C.
The same measure for `COC(=O)c1cc(OCc2ccc(OCc3nc(-c4ccccc4)oc3C)c(OC)c2)nn1-c1ccccc1`: 143 to 144 °C; for `Cc1cc2c(c(C)c1NCc1ccccc1)CC(C)(C)O2`: 80 to 81 °C.
`O=C(O)c1nc(-c2ccc(Cl)cc2Cl)n(-c2ccc(Cl)cc2)c1Br` showed a melting point of 205 to 207 °C.
As to `O=C(Nc1cc2ccccc2cn1)c1ncccc1NCc1ccncc1`, the melting point came to 168 °C.
Molecule `COc1cc(C=C2SC(=O)NC2=O)cc(OC)c1O` came in with a melting point of 248 to 249 °C.
For `COc1ccc(CN2Cc3c(-c4nc(C5CC5)no4)ncn3-c3ccc(OC)cc3C2=O)c(OC)c1`, the melting point is above 240 °C.
With `Cc1ccc2c(=O)[nH]c(N3CCN(C)CC3)cc2c1`, the melting point was in the range of 242 to 243 °C.
Molecule `Cc1cc(COc2nn3c(-c4ccccc4F)nnc3cc2C2CCC2)no1` gave a melting point of 150 °C.
Consider `CC(=O)ON1C(C)(C)NC(=O)C1(C)C`, for which the melting point lay within 188 to 190 °C.
In turn, `N#Cc1ccc(F)c(-c2ccc(OC(F)(F)F)cc2)c1` returned a melting point of 63.5 to 64.2 °C.
In turn, `Cc1ccc(NC(=O)c2ccc3ncccc3c2)cc1NC(=O)c1cccc(OCCN2CCOCC2)c1` came in with a melting point of 216 to 217 °C.
The same measure for `Cc1ccc(CCCO)c(NCc2ccc3nc(NCCCN4CCOCC4)n(Cc4cccc(Br)n4)c3c2)c1`: 141 °C.
`CS(=O)(=O)C(=C1CN(C(c2ccccc2)c2ccccc2)C1)c1cccc2cccnc12` had a melting point of 212 °C.
In the case of `CCn1ncnc1COc1nn2c(-c3ccccc3F)nncc2c1-c1ccncc1`, the melting point lay within 214 to 217 °C.
In the case of `CC1(C)CCC(C)(C)c2cc(-c3cc4ccc(C(=O)O)cc4s3)c(Br)cc21` it was 272 to 275 °C; in that of `Cn1ncnc1COc1nn2c(-c3ccccc3)nnc2cc1C1CCCCC1`, 192 °C; in that of `CC(C)(C)c1cc(N2Cc3ccccc3C2=O)cc(C(C)(C)C)c1O`, 205 to 207 °C.
Regarding `COc1ccc(C(=O)COc2ccc(C(=O)O)c(O)c2)cc1C12CC3CC(CC(C3)C1)C2`, the melting point fell in the range of 225 to 226 °C.
`CC1(C)C(=O)N(c2ccc(C#N)c(C(F)(F)F)c2)C(=S)N1CCO` came in with a melting point of 130 °C.
Molecule `O=C1CC(c2ccc([N+](=O)[O-])cc2)=Nc2cccc(C(F)(F)F)c21` gave a melting point above 260 °C.
Regarding `CC(=O)NCC1CN(c2ccc(N3CCN(c4nncs4)CC3)c(F)c2)C(=O)O1` (stereo not given), the melting point lay in the range of 206 to 208 °C.
Consider `COc1cc(OC)c([N+](=O)[O-])c(OC)c1N`, for which the melting point was found to be 111 °C.
For the molecule `CCCCN(C(=O)C(=O)O)c1cccc(NC(=O)C(=O)O)c1`, the melting point came to 232 °C.
Molecule `O=C(NC1CCN(C(=O)CCCC2(C(=O)NCC(F)(F)F)c3ccccc3-c3ccccc32)CC1)c1ccccc1Oc1ccccc1` returned a melting point of 96 to 98 °C.
Regarding `COC(=O)c1ccc(-c2cc(-c3ccccc3)on2)cc1`, the melting point was 201 to 202 °C.
The same measure for `CCOC(=O)N1c2cc(OC)c(OC)cc2[C@H](NC(=O)Cc2cc(C(F)(F)F)cc(C(F)(F)F)c2)C[C@@H]1C` (relative stereo): 157 to 159 °C.
The same measure for `Cc1csc2nc(-n3cccn3)nc(NCc3ccc4c(c3)OCO4)c12`: 210 °C.
With `CCC(C)(Oc1ccc(OCc2cc(-c3ccc(O)cc3)no2)cc1)C(=O)O` (stereo not given), the melting point lay in the range of 142 to 144 °C.
The same measure for `CC(C)CCN1C(=O)C(NC(=O)Oc2cccc(N(C)C)c2)C(=O)N(c2ccccc2)c2ccc(Cl)cc21` (stereo not given): 199 to 200 °C.
In the case of `O=C(O)CC1COc2cc(Cl)c(Cl)cc2O1` (stereo not given), the melting point lay within 145 to 147 °C.
`CCCCc1ccc(-c2ncc(C#N)cn2)cc1`: the melting point lay within 109 to 110 °C.
In turn, `Cc1ccc2c(c1)c(-c1ccc(F)cc1)c(C)n2-c1ccncc1` registered a melting point of 172 to 174 °C.
Turning to `O=S1(=O)NCN(C2CCCCC2)c2cc(Cl)c(Cl)cc21`, the melting point was in the range of 207 to 209 °C.
With `COc1cc2c3c(sc2c(Cl)c1Cl)CCCC3`, the melting point was 123 to 125 °C.
Turning to `COc1cn(-c2ccccc2F)nc(C(C)=O)c1=O`, the melting point was 154 to 156 °C.
`COc1cc(Nc2nccc(-c3ccc(NC(=O)OC(C)(C)C)cc3)n2)cc(OC)c1OC`: the melting point lay in the range of 158 to 159 °C.
As to `NNc1ccc(Cl)cn1`, the melting point was in the range of 116 to 122 °C.
`CC1(O)CCCc2nc3ccccc3c(N)c21` (stereo not given) returned a melting point of 250 °C.
`CN1CCN(C2c3ccccc3C=Cc3ccc(Br)cc32)CC1` (stereo not given) returned a melting point of 128 to 130 °C.
`CC(Cc1ccc(O)cc1)N(CC(=O)c1ccccc1)Cc1ccc(OCc2ccccc2)c([N+](=O)[O-])c1` (stereo not given) showed a melting point of 84 to 85 °C.
As for `CCc1c(C)cc(C(=O)NC(C(=O)OC)c2cccs2)c(=O)n1Cc1ccc(F)cc1` (stereo not given), the melting point was in the range of 182 to 184 °C.
